Patent EP3521435A1, “A HIGH STRINGENCY SELECTION SYSTEM FOR PROTEIN EXPRESSION IN PROLINE-AUXOTROPHIC CELLS” (Bayer AG, priority 2018, dated 2019)

Columns and labels:
CHO-K1 cells [1] = assay: Cell viability post-transfection of transfected cell populations under selection conditions; format: cell-based, Chinese hamster
Method in brief: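 Suspension CHO-K1 nucleofected (1e7 cells, 5 µg linearized DNA) with GFP vectors carrying puromycin marker plus SV40-driven murine P5CS; seeded 2e5 viable cells/ml, selected with 10 µg/ml puromycin or in proline/ornithine-free medium ± added pressure, viability tracked over time. GFP read by flow cytometry (yellow channel, PI-excluded dead cells): MFI and % high fluorescers above set threshold.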

CHO-K1 cells [2] = assay: Batch fermentation in shake flasks of human IgG1 expressing stable cell populations (Poros A-HPLC titer, viable cell density, viability); format: cell-based, Chinese hamster; settings: for Productivity profile / Batch titer day 7: human IgG1
[3] = MOCK, CD Fusion + 10 µg/ml Puromycin
[4] = MOCK, CD-Fusion w/o Pro + 10 µg/ml Puromycin
[5] = MOCK, CD-Fusion w/o Pro + 0.25 mM Pro + 10 µg/ml Puromycin
[6] = pJF1555, CD-Fusion w/o Pro + 0.25 mM Pro + 10 µg/ml Puromycin
[7] = pJF1576, CD-Fusion + 10 µg/ml Puromycin
[8] = pJF2053, CD-Fusion + 10 µg/ml Puromycin
[9] = Day 2 after inoculation, pJF1576, selected in CD Fusion + 10 µg/ml Puromycin, non-selecting conditions
[10] = Day 2 after inoculation, pJF1576, selected in CD-Fusion w/o Pro + 0.25 mM Pro + 10 µg/ml Puromycin, non-selecting conditions
[11] = Day 3 after inoculation, pJF1576, selected in CD Fusion + 10 µg/ml Puromycin, selective conditions
[12] = Day 4 after inoculation, pJF1576, selected in CD Fusion + 10 µg/ml Puromycin, non-selecting conditions
[13] = Day 4 after inoculation, pJF1576, selected in CD-Fusion w/o Pro + 0.25 mM Pro + 10 µg/ml Puromycin, non-selecting conditions
[14] = Day 5 after inoculation, pJF1576, selected in CD Fusion + 10 µg/ml Puromycin, selective conditions
[15] = Day 7 after inoculation, pJF1576, selected in CD Fusion + 10 µg/ml Puromycin, non-selecting conditions
[16] = Day 7 after inoculation, pJF1576, selected in CD Fusion + 10 µg/ml Puromycin, selective conditions
[17] = Day 7 after inoculation, pJF1576, selected in CD-Fusion w/o Pro + 0.25 mM Pro + 10 µg/ml Puromycin, non-selecting conditions
[18] = Day 9 after inoculation, pJF1576, selected in CD Fusion + 10 µg/ml Puromycin, non-selecting conditions
[19] = Day 9 after inoculation, pJF1576, selected in CD-Fusion w/o Pro + 0.25 mM Pro + 10 µg/ml Puromycin, non-selecting conditions

For `COc1ccc(C[C@H](N)C(=O)N[C@H]2[C@@H](O)[C@H](n3cnc4c(N(C)C)ncnc43)O[C@@H]2CO)cc1` [Puromycin], the “Viability on day 12 post-transfection” value (CHO-K1 cells [1]; [3]) was 25%, the “Viability on day 13 post-transfection” value (CHO-K1 cells [1]; [3]) was 9% and the “Viability on day 14 post-transfection” value (CHO-K1 cells [1]; [3]) was 19%. For the same molecule, the “Viability on day 13 post-transfection” value (CHO-K1 cells [1]; [4]) was 14%, the “Viability on day 14 post-transfection” value (CHO-K1 cells [1]; [4]) was 23% and the “Viability on day 12 post-transfection” value (CHO-K1 cells [1]; [5]) was 23%. For the same molecule, the “Viability on day 13 post-transfection” value (CHO-K1 cells [1]; [5]) was 13%, the “Viability on day 14 post-transfection” value (CHO-K1 cells [1]; [5]) was 20% and the “Viability on day 12 post-transfection” value (CHO-K1 cells [1]; Table 8, pJF1555, CD-Fusion w/o Pro + 0.25 mM Pro + 10 µg/ml Puromycin) was 83%. For the same molecule, the “Viability on day 12 post-transfection” value (CHO-K1 cells [1]; Table 12, pJF1555, CD-Fusion + 10 µg/ml Puromycin) was 86%, the “Viability on day 12 post-transfection” value (CHO-K1 cells [1]; Table 12, pJF1555, CD-Fusion w/o Pro + 0.25 mM Pro + 10 µg/ml Puromycin) was 63% and the “Viability on day 14 post-transfection” value (CHO-K1 cells [1]; pJF1555, CD Fusion + 10 µg/ml Puromycin) was 75%. The “Viability on day 19 post-transfection” value (CHO-K1 cells [1]; pJF1555, CD-Fusion + 10 µg/ml Puromycin) was 49%, the “Viability on day 14 post-transfection” value (CHO-K1 cells [1]; pJF1555, CD-Fusion w/o Pro + 10 µg/ml Puromycin) was 79% and the “Viability on day 14 post-transfection” value (CHO-K1 cells [1]; [6]) was 79%. The “Viability on day 19 post-transfection” value (CHO-K1 cells [1]; [6]) was 48%, the “Viability on day 13 post-transfection” value (CHO-K1 cells [1]; pJF1556, CD Fusion + 10 µg/ml Puromycin) was 81% and the “Viability on day 13 post-transfection” value (CHO-K1 cells [1]; pJF1556, CD-Fusion w/o Pro + 10 µg/ml Puromycin) was 92%. For the same molecule, the “Viability on day 13 post-transfection” value (CHO-K1 cells [1]; pJF1556, CD-Fusion w/o Pro + 0.25 mM Pro + 10 µg/ml Puromycin) was 90%, the “Viability on day 12 post-transfection” value (CHO-K1 cells [1]; [7]) was 78% and the “Viability on day 21 post-transfection” value (CHO-K1 cells [1]; [7]) was 98.4%. The “Viability on day 12 post-transfection” value (CHO-K1 cells [1]; pJF1576, CD-Fusion w/o Pro + 0.25 mM Pro + 10 µg/ml Puromycin) was 79%, the “Viability on day 21 post-transfection” value (CHO-K1 cells [1]; pJF1579, CD-Fusion + 10 µg/ml Puromycin) was 98.8% and the “Viability on day 15 post-transfection” value (CHO-K1 cells [1]; [8]) was 86.6%. For the same molecule, the “Viability on day 22 post-transfection” value (CHO-K1 cells [1]; [8]) was 98.6%, the “Viability on day 22 post-transfection” value (CHO-K1 cells [1]; pJF2222, CD-Fusion + 10 µg/ml Puromycin) was 98.7% and the Viability profile (CHO-K1 cells [2]; Day 0 after inoculation, pJF1576, selected in CD Fusion + 10 µg/ml Puromycin, non-selecting conditions) was 98.7%. The Viability profile (CHO-K1 cells [2]; Day 0 after inoculation, pJF1576, selected in CD Fusion + 10 µg/ml Puromycin, selective conditions) was 92.8%, the Viability profile (CHO-K1 cells [2]; Day 0 after inoculation, pJF1576, selected in CD-Fusion w/o Pro + 0.25 mM Pro + 10 µg/ml Puromycin, non-selecting conditions) was 99.0% and the Productivity profile (CHO-K1 cells [2]; [9]) was 6.9 mg/L. It also gave a Productivity profile (CHO-K1 cells [2]; Day 2 after inoculation, pJF1576, selected in CD Fusion + 10 µg/ml Puromycin, selective conditions) of 10.9 mg/L, a Productivity profile (CHO-K1 cells [2]; [10]) of 11.2 mg/L and a Viability profile (CHO-K1 cells [2]; [9]) of 99.0%. The “Viable cell density profile” value (CHO-K1 cells [2]; [9]) was 7,7E+05 VCD/ml, the Viability profile (CHO-K1 cells [2]; [10]) was 99.1% and the “Viable cell density profile” value (CHO-K1 cells [2]; [10]) was 8,3E+05 VCD/ml. The Viability profile (CHO-K1 cells [2]; [11]) was 98.4%, the “Viable cell density profile” value (CHO-K1 cells [2]; [11]) was 1.7E+06 VCD/ml and the Productivity profile (CHO-K1 cells [2]; [12]) was 15.1 mg/L. The Productivity profile (CHO-K1 cells [2]; Day 4 after inoculation, pJF1576, selected in CD Fusion + 10 µg/ml Puromycin, selective conditions) was 27.6 mg/L, the Productivity profile (CHO-K1 cells [2]; [13]) was 24.1 mg/L and the Viability profile (CHO-K1 cells [2]; [12]) was 99.7%. For the same molecule, the “Viable cell density profile” value (CHO-K1 cells [2]; [12]) was 6,2E+06 VCD/ml, the Viability profile (CHO-K1 cells [2]; [13]) was 99.8% and the “Viable cell density profile” value (CHO-K1 cells [2]; [13]) was 5,4E+06 VCD/ml. For the same molecule, the Viability profile (CHO-K1 cells [2]; [14]) was 99.1%, the “Viable cell density profile” value (CHO-K1 cells [2]; [14]) was 7.1E+06 VCD/ml and the Productivity profile (CHO-K1 cells [2]; [15]) was 43.3 mg/L. It also gave a Productivity profile (CHO-K1 cells [2]; [16]) of 60.5 mg/L, a Productivity profile (CHO-K1 cells [2]; [17]) of 60.6 mg/L and a Viability profile (CHO-K1 cells [2]; [15]) of 98.7%. For the same molecule, the “Viable cell density profile” value (CHO-K1 cells [2]; [15]) was 1,2E+07 VCD/ml, the Viability profile (CHO-K1 cells [2]; [16]) was 97.7% and the “Viable cell density profile” value (CHO-K1 cells [2]; [16]) was 1.1E+07 VCD/ml. The Viability profile (CHO-K1 cells [2]; [17]) was 97.8%, the “Viable cell density profile” value (CHO-K1 cells [2]; [17]) was 1,0E+07 VCD/ml and the Productivity profile (CHO-K1 cells [2]; [18]) was 61.5 mg/L. The Productivity profile (CHO-K1 cells [2]; [19]) was 92.5 mg/L, the Viability profile (CHO-K1 cells [2]; [18]) was 43.9% and the “Viable cell density profile” value (CHO-K1 cells [2]; [18]) was 5,8E+06 VCD/ml. The Viability profile (CHO-K1 cells [2]; [19]) was 58.1%, the “Viable cell density profile” value (CHO-K1 cells [2]; [19]) was 6,2E+06 VCD/ml and the “Batch titer day 7” value (CHO-K1 cells [2]; pJF1576, selected in CD Fusion + 10 µg/ml Puromycin, non-selecting conditions) was 145 mg/L. For the same molecule, the “Batch titer day 7” value (CHO-K1 cells [2]; pJF1576, selected in CD-Fusion w/o Pro + 10 µg/ml Puromycin, non-selecting conditions) was 198 mg/L, the “Batch titer day 7” value (CHO-K1 cells [2]; pJF1576, selected in CD-Fusion w/o Pro + 0.25 mM Pro + 10 µg/ml Puromycin, non-selecting conditions) was 164 mg/L and the “Batch titer day 7” value (CHO-K1 cells [2]; pJF1577, selected in CD Fusion + 10 µg/ml Puromycin, non-selecting conditions) was 174 mg/L. The “Batch titer day 7” value (CHO-K1 cells [2]; pJF1577, selected in CD-Fusion w/o Pro + 10 µg/ml Puromycin, non-selecting conditions) was 154 mg/L and the “Batch titer day 7” value (CHO-K1 cells [2]; pJF1577, selected in CD-Fusion w/o Pro + 0.25 mM Pro + 10 µg/ml Puromycin, non-selecting conditions) was 127 mg/L.
